Assay [1] relates to cultured human mast cells. In words: Degranulation inhibition test using cultured human mast cells (IgE cross-linking, β-Hexosaminidase release). It counts as cell-based. As to conditions: Mast cell, cultured human mast cells, read-out: human degranulation ave. IC50. Put shortly:
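Degranulation was triggered by anti-hIgE (10 μg/mL final, 30 min, 37 °C) after a 10-min compound pretreatment (DMSO 0.1%) of cord-blood CD34+-derived mast cells primed 5 days with IL-4 and IgE. β-Hexosaminidase in supernatant was measured with p-nitrophenyl-GlcNAc substrate (A405), expressed against water-lysed total; IC50 (M).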

The target of assay [2] is GST-Syk Full Protein (human) (Homo sapiens, UniProt P43405). In words: Syk kinase inhibition test (HTRF method). It counts as biochemical. In short, it runs like this: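 HTRF read-out: after EDTA termination and 1 h with XL665-streptavidin and Eu-anti-phosphotyrosine, the 665/620 nm ratio was measured. The reaction ran 30 min at 20–25 °C with final 6.4 nM human GST-Syk, 250 nM biotinylated peptide, 100 μM ATP, pH 7.0 HEPES buffer, 2% DMSO.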

The mark [3] stands for this setting: Tables 1-x, compounds A, read-out: sykHTRF ave IC50.
The mark [4] stands for this setting: Tables 2-x, thiophene compounds B.
Where [5] appears, read: Tables 2-x, thiophene compounds B, read-out: sykHTRK ave IC50.

Counter-ions that a name gives are not always drawn. Like-named read-outs stand apart in the source and are kept apart here.

Regarding `COc1cc(C(=O)O)ccc1CN(C)c1ncc(-c2cccc(Nc3cc(C)ccn3)n2)s1` [Compound A-606, 3-methoxy-4-[(N-methyl-N-{5-[6-(4-methylpyridin-2-ylamino)pyridin-2-yl]thiazol-2-yl}amino)methyl]benzoic acid dihydrochloride], the IC50 in assay [1] (Tables 1-x, compounds A) was 100 to 1000 nM; in assay [2] (setting [3]), below 100 nM.
With `Cc1ccnc(Nc2cccc(-c3cnc(N4CCc5cc(C(=O)O)ccc5C4)s3)n2)c1` [Compound A-607, 2-{5-[6-(4-methylpyridin-2-ylamino)pyridin-2-yl]thiazol-2-yl}-1,2,3,4-tetrahydroisoquinoline-6-carboxylic acid], the IC50 in assay [1] (Tables 1-x, compounds A) was 100 to 1000 nM; in assay [2] (setting [3]), below 100 nM.
In the same order, the values of `Cc1ccnc(Nc2cccc(-c3cnc(N(C)Cc4nc(C(=O)O)cs4)s3)n2)c1` [Compound A-609, 2-[(N-methyl-N-{5-[6-(4-methylpyridin-2-ylamino)pyridin-2-yl]thiazol-2-yl}amino)methyl]thiazole-4-carboxylic acid] are above 1000 nM and below 100 nM.
For `Cc1ccnc(Nc2cccc(-c3cnc(N(C)[C@H]4CC[C@H](CC(=O)O)CC4)s3)n2)c1` [Compound A-610, [trans-4-(N-methyl-N-{5-[6-(4-methylpyridin-2-ylamino)pyridin-2-yl]thiazol-2-yl}amino)cyclohexyl]acetic acid], in that order: 100 to 1000 nM and below 100 nM.
As for `Cc1ccnc(Nc2cccc(-c3cnc(N(C)[C@H]4CC[C@@H](CC(=O)O)CC4)s3)n2)c1` [Compound A-611, [cis-4-(N-methyl-N-{5-[6-(4-methylpyridin-2-ylamino)pyridin-2-yl]thiazol-2-yl}amino)cyclohexyl]acetic acid], the IC50 in assay [1] (Tables 1-x, compounds A) is 100 to 1000 nM; in assay [2] (setting [3]), below 100 nM.
For `Cc1ccnc(Nc2cccc(-c3cnc(CCC4CCC(C(=O)O)CC4)s3)n2)c1` (stereo not shown) [Compound A-612, 4-(2-{5-[6-(4-methylpyridin-2-ylamino)pyridin-2-yl]thiazol-2-yl}ethyl)cyclohexanecarboxylic acid], in that order: above 1000 nM and below 100 nM.
For `Cc1ccnc(Nc2cccc(-c3cnc(N4CCC(C)(CC(=O)O)CC4)s3)n2)c1` [Compound A-613, (4-methyl-1-{5-[6-(4-methylpyridin-2-ylamino)pyridin-2-yl]thiazol-2-yl}piperidin-4-yl)acetic acid dihydrochloride], in that order: 100 to 1000 nM and below 100 nM.
Take `Cc1ccnc(Nc2cccc(-c3cnc(N4CCOc5c(C(=O)O)cccc54)s3)n2)c1` [Compound A-614, 4-{5-[6-(4-methylpyridin-2-ylamino)pyridin-2-yl]thiazol-2-yl}-3,4-dihydro-2H-benzo[1,4]oxazine-8-carboxylic acid]: the IC50 in assay [1] (Tables 1-x, compounds A) is above 1000 nM; in assay [2] (setting [3]), below 100 nM.
In the case of `Cc1ccnc(Nc2cccc(-c3cnc(N(C)C(C)(C)c4ccc(C(=O)O)cc4)s3)n2)c1` [Compound A-616, 4-[1-methyl-1-(N-methyl-N-{5-[6-(4-methylpyridin-2-ylamino)pyridin-2-yl]thiazol-2-yl}amino)ethyl]benzoic acid dihydrochloride], the IC50 in assay [1] (Tables 1-x, compounds A) was 100 to 1000 nM; in assay [2] (setting [3]), below 100 nM.
For `Cc1ccnc(Nc2cccc(-c3cnc(N(C)c4ccc(CC(=O)O)cc4)s3)n2)c1` [Compound A-617, [4-(N-methyl-N-{5-[6-(4-methylpyridin-2-ylamino)pyridin-2-yl]thiazol-2-yl}amino)phenyl]acetic acid dihydrochloride], in that order: above 1000 nM and below 100 nM.
For `O=C(O)CC1CCN(c2ncc(-c3cccc(Nc4cc(Cl)ccn4)n3)s2)CC1` [Compound A-620, (1-{5-[6-(4-chloropyridin-2-ylamino)pyridin-2-yl]thiazol-2-yl}piperidin-4-yl)acetic acid dihydrochloride], in that order: 100 to 1000 nM and below 100 nM.
In the same order, the values of `Cc1ccnc(Nc2cccc(-c3cnc(N4CCC(C(C)C(=O)O)CC4)s3)n2)c1` (stereo not shown) [Compound A-652, 2-(1-{5-[6-(4-methylpyridin-2-ylamino)pyridin-2-yl]thiazol-2-yl}piperidin-4-yl)propionic acid] are below 100 nM and below 100 nM.
As to `CC(=O)c1ccc(-c2cccc(Nc3cc(C)ccn3)n2)s1` [Compound B-1, 1-{5-[6-(4-methylpyridin-2-ylamino)pyridin-2-yl]thiophen-2-yl}ethanone], the figures for the IC50 in assay [1] (setting [4]) and in assay [2] (setting [5]) were above 1000 nM and below 100 nM, respectively.
In the same order, the values of `Cc1ccnc(Nc2cccc(-c3ccc(C=O)s3)n2)c1` [Compound B-2, 5-[6-(4-methylpyridin-2-ylamino)pyridin-2-yl]thiophene-2-carboxaldehyde] are above 1000 nM and below 100 nM.
As for `Cc1ccnc(Nc2cccc(-c3ccc(C(C)O)s3)n2)c1` (stereo not shown) [Compound B-3, 1-{5-[6-(4-methylpyridin-2-ylamino)pyridin-2-yl]thiophen-2-yl}ethanol], the IC50 in assay [1] (setting [4]) and in assay [2] (setting [5]) was 100 to 1000 nM throughout.
Regarding `CC(=O)OC(C)c1ccc(-c2cccc(Nc3cc(C)ccn3)n2)s1` (stereo not shown) [Compound B-4, 1-{5-[6-(4-methylpyridin-2-ylamino)pyridin-2-yl]thiophen-2-yl}ethyl acetate acetic acid ester], the IC50 in assay [1] (setting [4]) is above 1000 nM; in assay [2] (setting [5]), 100 to 1000 nM.
In the same order, the values of `Cc1ccnc(Nc2cccc(-c3sccc3C)n2)c1` [Compound B-5] are above 1000 nM and 100 to 1000 nM.
For `CC(=O)c1cc(C)c(-c2cccc(Nc3cc(C)ccn3)n2)s1` [Compound B-6], in that order: 100 to 1000 nM and 100 to 1000 nM.
In the same order, the values of `CC(=NO)c1cc(C)c(-c2cccc(Nc3cc(C)ccn3)n2)s1` [Compound B-7] are above 1000 nM and 100 to 1000 nM.
`CC(=O)Nc1cc(C)c(-c2cccc(Nc3cc(C)ccn3)n2)s1` [Compound B-8]: the IC50 in assay [1] (setting [4]) is above 1000 nM; in assay [2] (setting [5]), 100 to 1000 nM.
In the same order, the values of `CNC(=O)c1cc(C)c(-c2cccc(Nc3cc(C)ccn3)n2)s1` [Compound B-9] are 100 to 1000 nM and 100 to 1000 nM.
For `CC(=O)Nc1ccc(-c2cccc(Nc3cc(C)ccn3)n2)s1` [Compound B-10, N-{5-[6-(4-methylpyridin-2-ylamino)pyridin-2-yl]thiophen-2-yl}acetamide], in that order: 100 to 1000 nM and below 100 nM.
For `CNC(=O)c1ccc(-c2cccc(Nc3cc(C)ccn3)n2)s1` [Compound B-11, N-methyl-5-[6-(4-methylpyridin-2-ylamino)pyridin-2-yl]thiophene-2-carboxamide], in that order: 100 to 1000 nM and below 100 nM.
`Cc1ccnc(Nc2cccc(-c3ccc(CO)s3)n2)c1` [Compound B-12, {5-[6-(4-methylpyridin-2-ylamino)pyridin-2-yl]thiophen-2-yl}methanol]: the figures for the IC50 in assay [1] (setting [4]) and in assay [2] (setting [5]) were 100 to 1000 nM and below 100 nM, respectively.
For `Cc1ccnc(Nc2cccc(-c3ccc(C)s3)n2)c1` [Compound B-13], in that order: above 1000 nM and 100 to 1000 nM.
In the same order, the values of `Cc1ccnc(Nc2cccc(-c3ccc(CN(C)C)s3)n2)c1` [Compound B-14] are 100 to 1000 nM and 100 to 1000 nM.
For `CC(=NO)c1ccc(-c2cccc(Nc3cc(C)ccn3)n2)s1` [Compound B-15, 1-{5-[6-(4-methylpyridin-2-ylamino)pyridin-2-yl]thiophen-2-yl}ethanone oxime], in that order: 100 to 1000 nM and below 100 nM.
`Cc1ccnc(Nc2cccc(-c3ccc(Cl)s3)n2)c1` [Compound B-16]: the IC50 in assay [1] (setting [4]) is above 1000 nM; in assay [2] (setting [5]), 100 to 1000 nM.
For the compound `COc1ccnc(Nc2cccc(-c3ccc(C(C)=O)s3)n2)c1` [Compound B-17, 1-{5-[6-(4-methoxypyridin-2-ylamino)pyridin-2-yl]thiophen-2-yl}ethanone], the IC50 in assay [1] (setting [4]) was 100 to 1000 nM; in assay [2] (setting [5]), below 100 nM.
As for `CON=C(C)c1ccc(-c2cccc(Nc3cc(C)ccn3)n2)s1` [Compound B-18], the IC50 is above 1000 nM in assay [1] (setting [4]) and 100 to 1000 nM in assay [2] (setting [5]).
For `COC(=O)c1ccc(-c2cccc(Nc3cc(C)ccn3)n2)s1` [Compound B-19], the IC50 in assay [1] (setting [4]) is above 1000 nM; in assay [2] (setting [5]), 100 to 1000 nM.
For the compound `Cc1ccnc(Nc2cccc(-c3ccc(C(=O)O)s3)n2)c1` [Compound B-20], the 50% inhibitory concentration (IC50) in assay [1] (setting [4]) was above 1000 nM; in assay [2] (setting [5]), 100 to 1000 nM.
On to `Cc1ccnc(Nc2cccc(-c3sc([N+](=O)[O-])cc3C)n2)c1` [Compound B-21], for which the IC50 in assay [1] (setting [4]) and in assay [2] (setting [5]) was above 1000 nM in each case.
In the case of `Cc1ccnc(Nc2cccc(-c3ccc(C(=O)N(C)C)s3)n2)c1` [Compound B-22], the IC50 in assay [1] (setting [4]) is above 1000 nM; in assay [2] (setting [5]) it was 100 to 1000 nM.
In the same order, the values of `Cc1ccnc(Nc2cccc(-c3ccc(C(N)=O)s3)n2)c1` [Compound B-23, 5-[6-(4-methylpyridin-2-ylamino)pyridin-2-yl]thiophene-2-carboxamide] are above 1000 nM and below 100 nM.
For `Cc1ccnc(Nc2cccc(-c3ccc(C(=O)NCCO)s3)n2)c1` [Compound B-24], in that order: 100 to 1000 nM and 100 to 1000 nM.
In the same order, the values of `CNCc1ccc(-c2cccc(Nc3cc(C)ccn3)n2)s1` [Compound B-25] are above 1000 nM and 100 to 1000 nM.
Regarding `CC(=O)c1ccc(-c2cccc(Nc3cc(N(C)C)ncn3)n2)s1` [Compound B-26], the values for the IC50 in assay [1] (setting [4]) and in assay [2] (setting [5]) were above 1000 nM and 100 to 1000 nM, respectively.

(Values after patent US7803801B2, “Aminopyridine compounds having Syk inhibitory activity” (Japan Tobacco, Inc., priority 2005, dated 2010).)
